Results published in patent publication US20040067998A1, “Antifungal and/or antiparasitic pharmaceutical composition and novel indole derivatives as active principle of such a composition” (priority 2003, published 2004).
Values after ≈ are worked out from the molar mass of the structure shown. Values joined by “and” are separate entries in the source; they are usually repeats but may differ in a detail not shown here. Equal entries are not always repeated. Where two headings read alike, the source gives them in different places.

How the values were obtained:
Type in all cases: cell-based
[1] = tested on: Candida albicans (strain n° CA980001); assay: Antifungal activity on a clinical strain of Candida albicans (MTT colorimetric microplate test); conditions: for CMI or CI80 Candida albicans (CA980001) / MIC: strain CA980001; for MIC: read-out: CMI or CI80 Candida albicans (CA980001)
[2] = tested on: Aspergillus fumigatus (strain n°AF 980003); assay: Antifungal activity on a clinical strain of Aspergillus fumigatus (Alamar Blue microplate test); conditions: for MIC / CMI or CI80 Aspergillus fumigatus (AF980003): strain AF980003; for MIC: read-out: CMI or CI80 Aspergillus fumigatus (AF980003); for activity against Aspergillus fumigatus (in words): summary of Tables 27 to 40
[3] = tested on: promastigote stage of Leishmania mexicana; assay: Antiparasitic activity on the promastigote form of Leishmania (MTT); conditions: for IC50: read-out: CI50 Leishmania mexicana Promastigotes
[4] = Candida albicans, 24 h at 37° C., MTT
[5] = Aspergillus fumigatus, Alamar Blue
[6] = Leishmania mexicana, promastigotes, 36 h at 26° C., MTT

CCCCC(c1cn(Cc2ccc(Cl)cc2)c2ccccc12)n1ccnc1.O=C(O)/C=C/C(=O)O (stereo not shown) [66f]
CMI or CI80 Candida albicans (CA980001) [1]: 7 ± 0.1 μM and 3.46 μg/mL | activity of inhibition of Candida albicans (in words) ([1]; summary of Tables 27 to 40): significant activity | MIC [2]: >100 µM | CI50 Leishmania mexicana Promastigotes ([3]; promastigotes): 2.6 ± 0.03 µg/mL | IC50 ([3]; promastigotes): 5.4 ± 0.06 µM

CC(c1cn(Cc2ccc(F)cc2)c2ccccc12)n1ccnc1.O=C(O)/C=C/C(=O)O (stereo not shown) [67f]
CMI or CI80 Candida albicans (CA980001) [1]: 57 ± 2 μM and 25 ± 1 μg/mL | CMI or CI80 Aspergillus fumigatus (AF980003) [2]: 64 ± 2 μM and 28 ± 1 μg/mL | activity against Aspergillus fumigatus (in words) [2]: strong activity | CI50 Leishmania mexicana Promastigotes ([3]; promastigotes): 1.57 ± 1.2 µg/mL | IC50 ([3]; promastigotes): 3.6 ± 1.2 µM

CC(c1cn(Cc2ccc(Cl)cc2Cl)c2ccccc12)n1ccnc1.O=C(O)/C=C/C(=O)O (stereo not shown) [68f]
CMI or CI80 Candida albicans (CA980001) [1]: 31 ± 7 μM and 15 ± 3 μg/mL | CMI or CI80 Aspergillus fumigatus (AF980003) [2]: 65 ± 3 μM and 31 ± 1 μg/mL | activity against Aspergillus fumigatus (in words) [2]: strong activity | CI50 Leishmania mexicana Promastigotes ([3]; promastigotes): 2.7 ± 0.05 µg/mL | IC50 ([3]; promastigotes): 5.7 ± 0.13 µM

CC(c1cn(Cc2ccc(F)cc2F)c2ccccc12)n1ccnc1.O=[N+]([O-])O (stereo not shown) [69n]
CMI or CI80 Candida albicans (CA980001) [1]: 65 ± 6 μM and 26 ± 5 μg/mL | CMI or CI80 Aspergillus fumigatus (AF980003) [2]: 64 ± 5 μM and 21.59 μg/mL | activity against Aspergillus fumigatus (in words) [2]: strong activity

Cc1c(C(C)n2ccnc2)c2ccccc2n1Cc1ccc(Cl)cc1Cl.O=[N+]([O-])O (stereo not shown) [71n]
CMI or CI80 Candida albicans (CA980001) [1]: 52 ± 3 μM and 23.31 μg/mL | CMI or CI80 Aspergillus fumigatus (AF980003) [2]: 74 ± 3 μM and 28.44 μg/mL

Fc1ccc(Cn2ccc3cc(-c4nnn[nH]4)ccc32)cc1 [Cpsé 2, 1-(4-Fluorobenzyl)-5-(1H-tetrazol-5-yl)-1H-indole]
MIC [1, 4]: 64 ± 1 µM (≈ 18.8 µg/mL) | CMI or CI80 Candida albicans (CA980001) ([1]; 24 h at 37° C., MTT, listed as 4): 19.54 ± 1 µg/mL | MIC [2, 5]: > 100 µM | activity against Leishmania mexicana (in words) [3]: strong activity | IC50 [3, 6]: 3 µg/mL and 10 µM

Fc1ccc(Cn2c(Cn3ccnc3)cc3ccccc32)cc1 [Cpsé 3n, 1-(4-Fluorobenzyl)-2-(1H-imidazol-1-ylmethyl)-1H-indole]
MIC [1, 4]: 81 ± 14 µM (≈ 24.7 µg/mL) | CMI or CI80 Candida albicans (CA980001) ([1]; 24 h at 37° C., MTT, listed as 9): 32.46 ± 14 µg/mL | MIC [2, 5]: 21 ± 0.3 µM (≈ 6.41 µg/mL) | CMI or CI80 Aspergillus fumigatus (AF980003) ([2]; Alamar Blue): 8 ± 1.2 µg/mL | activity against Aspergillus fumigatus (in words) [2]: most active | activity against Leishmania mexicana (in words) [3]: strong activity | IC50 [3, 6]: 3.4 µg/mL and 8.5 µM

Clc1ccc(Cn2cc(Cn3ccnc3)c3cc(Br)ccc32)cc1 [Cpsé 10, 5-Bromo-1-(4-chlorobenzyl)-3-(1H-imidazol-1-ylmethyl)-1H-indole]
MIC [1, 4]: > 100 µM | MIC [2, 5]: > 100 µM | activity against Leishmania mexicana (in words) [3]: strong activity | IC50 [3, 6]: 3 µg/mL and 7.5 µM

CCn1c(C(c2ccc(F)cc2)n2ccnc2)c(C)c2ccccc21 (stereo not shown) [Cpsé 31, 1-Ethyl-2-[(4-fluorophenyl)(1H-imidazol-1-yl)methyl]-3-methyl-1H-indole]
MIC [1, 4]: 58 ± 4 µM (≈ 19.3 µg/mL) | CMI or CI80 Candida albicans (CA980001) ([1]; 24 h at 37° C., MTT, listed as 18): 18 ± 1 µg/mL

CCn1cc(C(c2ccc(F)cc2)n2ccnc2)c2cc(Br)ccc21 (stereo not shown) [Cpsé 46, 5-Bromo-1-ethyl-3-[(4-fluorophenyl)(1H-imidazol-1yl)methyl]-1H-indole]
MIC [1, 4]: > 100 µM | MIC [2, 5]: > 100 µM | IC50 [3, 6]: 65 µM and 21 µg/mL

CCn1ccc2cc(C(c3ccc(Cl)cc3)n3ccnc3)ccc21 (stereo not shown) [Cpsé 53, 5-[(4-Chlorophenyl)(1H-imidazol-1-yl)methyl]-1-ethyl-1H-indole]
MIC [1, 4]: > 100 µM | MIC [2, 5]: > 100 µM | IC50 [3, 6]: > 100 µM

CCC(C)n1ncn(-c2ccc(N3CCN(c4ccc(OCC5COC(Cn6cncn6)(c6ccc(Cl)cc6Cl)O5)cc4)CC3)cc2)c1=O (stereo not shown) [Itraconazole]
MIC ([2]; Aspergillus fumigatus): 0.71 µM (≈ 0.501 µg/mL) | CMI or CI80 Aspergillus fumigatus (AF980003) [2]: 0.5 µg/mL

N#Cc1ccc(Cn2cc(Cn3ccnc3)c3cc(Br)ccc32)cc1 [compound 13]
CMI or CI80 Candida albicans (CA980001) ([1]; 24 h at 37° C., MTT): 59 ± 5 μM and 23 ± 2 μg/ml

Fc1ccc(Cn2ccc3c(Cn4ccnc4)cccc32)cc1 [compound 17]
CMI or CI80 Candida albicans (CA980001) ([1]; 24 h at 37° C., MTT): 54 ± 1 μM and 16.49 ± 1 μg/ml | CMI or CI80 Aspergillus fumigatus (AF980003) ([2]; Alamar Blue): 72 ± 3 μM and 21.99 ± 2 μg/ml

CCn1c(C(c2ccc(Cl)cc2Cl)n2ccnc2)c(C)c2ccccc21 (stereo not shown) [compound 30]
CMI or CI80 Candida albicans (CA980001) [1]: 76 ± 2 μM and 25 ± 1 μg/mL

OC(Cn1cncn1)(Cn1ccc2ccccc21)c1ccc(C(F)(F)F)cc1 (stereo not shown) [compound 79]
MIC [1]: <0.001 µM

CC(n1ccc2ccccc21)C(O)(Cn1cncn1)c1ccc(F)cc1F (stereo not shown) [compound 81]
MIC [1]: <0.001 µM

Brc1ccc(C(Cn2ccc3ccccc32)n2ccnc2)cc1 (stereo not shown) [compound 84]
CMI or CI80 Aspergillus fumigatus (AF980003) [2]: 68 ± 3 μM and 29 ± 1 μg/mL | CI50 Leishmania mexicana Promastigotes [3]: 3.6 ± 0.4 µg/mL (≈ 9.83 µM) | IC50 [3]: 8.45 ± 1.02 µM
